± gives the standard deviation of the averaged measurements.
Columns and labels:
Conditions in all cases: treatment time: 3 days
UT-SCC-24A [1] = experiment: maximal % inhibition of viability relative to DMSO; higher = stronger effect
Method: (§1)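 HNSCC cell lines (500 cells/well, 384-well) were cultured on plastic, on top of (2D) or embedded (3D) in Matrigel or human leiomyoma matrix Myogel (500 ug/mL; Myogel 3D mixed with rat collagen I). Cells were treated for 3 days with 5 ten-fold concentrations of each drug, and viability was read by CellTiter-Glo. Viability was normalised to DMSO (0% inhibition) and 100 uM benzethonium chloride (100% inhibition) controls and fitted with the FIMM DSRT pipeline to give IC50 (nM), maximal % inhibition and the drug sensitivity score (DSS). Suffixes _1/_2/_3 on drug names are replicates.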

UT-SCC-106A = experiment: drug sensitivity score (DSS); higher = more sensitive; extreme values may be limits of the assay
Procedure, shortened: (§2)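 The FIMM pipeline was used to fit percent-inhibition dose–response curves, giving IC50, maximal inhibition and drug sensitivity score. Input data were CellTiter-Glo 2.0 luminescence readings, normalised to vehicle (0.1% DMSO) and cell-killing control wells, from HPV-negative HNSCC cell lines seeded at 500 cells/well in 384-well plates. Cells sat on plastic, on Matrigel or Myogel coatings (500 µg/mL), or within Matrigel or Myogel plus rat collagen I, and received compounds at five 10-fold concentrations for 3 days.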

UT-SCC-14 = experiment: as above
Procedure, shortened: as §2

UT-SCC-24B = experiment: as above
Procedure, shortened: as §2

UT-SCC-28 [2] = experiment: as above
Procedure, shortened: as §2

UT-SCC-40 = experiment: as above
Procedure, shortened: as §2

UT-SCC-42A [3] = experiment: as above
Procedure, shortened: as §2

UT-SCC-42B = experiment: as above
Procedure, shortened: as §2

UT-SCC-44 = experiment: as above
Procedure, shortened: as §2

UT-SCC-73 = experiment: as above
Procedure, shortened: as §2

UT-SCC-81 [4] = experiment: as above
Procedure, shortened: as §2

UT-SCC-8 = experiment: as above
Procedure, shortened: as §2

UT-SCC-28 [5] = experiment: relative IC50 (midpoint of the fitted curve; maximal inhibition may be below 50%); higher = less potent
Procedure, shortened: as §2

UT-SCC-42A [6] = experiment: as above
Procedure, shortened: as §2

UT-SCC-81 [7] = experiment: as above
Procedure, shortened: as §2

UT-SCC-24A [8] = experiment: relative IC50 (midpoint of the fitted curve; maximal inhibition may be below 50%); higher = less potent
Method: as §1

[9] = culture condition: embedded in Matrigel
[10] = culture condition: embedded in Myogel + collagen I
[11] = culture condition: on top of Matrigel
[12] = culture condition: on top of Myogel
[13] = culture condition: plastic 2D (no matrix)

- relative IC50 (UT-SCC-28 [5]; [9]): 0.0768 µM
- relative IC50 (UT-SCC-28 [5]; [11]): 0.0988 µM
- relative IC50 (UT-SCC-42A [6]; [9]): 0.0142 µM
- relative IC50 (UT-SCC-42A [6]; [10]): 0.183 µM
- relative IC50 (UT-SCC-42A [6]; [11]): 0.0176 µM
- relative IC50 (UT-SCC-42A [6]; [13]): 0.0408 µM
- relative IC50 (UT-SCC-81 [7]; [9]): 0.0145 µM
- relative IC50 (UT-SCC-81 [7]; [11]): 0.0435 µM
- relative IC50 (UT-SCC-81 [7]; [12]): 0.532 µM
- relative IC50 (UT-SCC-81 [7]; [13]): 0.223 µM
- relative IC50 (UT-SCC-24A [8]; [9]): 0.00415 µM
- relative IC50 (UT-SCC-24A [8]; [10]): 0.077 µM
- relative IC50 (UT-SCC-24A [8]; [11]): 0.00619 µM
- relative IC50 (UT-SCC-24A [8]; [12]): 0.105 µM
- relative IC50 (UT-SCC-24A [8]; [13]): 0.0102 µM
Structure (SMILES): O=C(NC[C@H](O)CO)c1ccncc1Nc1ccc(I)cc1F [Pimasertib]
- maximal % inhibition of viability (UT-SCC-24A [1]; [9]): 85 ± 0.94%
- maximal % inhibition of viability (UT-SCC-24A [1]; [10]): 77.9 ± 2.9%
- maximal % inhibition of viability (UT-SCC-24A [1]; [11]): 81.4 ± 1.8%
- maximal % inhibition of viability (UT-SCC-24A [1]; [12]): 68 ± 3.4%
- maximal % inhibition of viability (UT-SCC-24A [1]; [13]): 79.3 ± 2.7%
- drug sensitivity score (UT-SCC-106A; [9]): 19.4 ± 0.44 DSS
- drug sensitivity score (UT-SCC-106A; [10]): 5.6 ± 0.27 DSS
- drug sensitivity score (UT-SCC-106A; [11]): 22.2 ± 0.52 DSS
- drug sensitivity score (UT-SCC-106A; [12]): 6.27 ± 0.74 DSS
- drug sensitivity score (UT-SCC-106A; [13]): 22.2 ± 0.74 DSS
- drug sensitivity score (UT-SCC-14; [9]): 13.9 ± 3.4 DSS
- drug sensitivity score (UT-SCC-14; [10]): 12.2 ± 5.1 DSS
- drug sensitivity score (UT-SCC-14; [11]): 10.6 ± 2.3 DSS
- drug sensitivity score (UT-SCC-14; [12]): 8.27 ± 2.3 DSS
- drug sensitivity score (UT-SCC-14; [13]): 8.03 ± 3.4 DSS
- drug sensitivity score (UT-SCC-24B; [9]): 15.6 ± 1.2 DSS
- drug sensitivity score (UT-SCC-24B; [10]): 14.4 ± 2 DSS
- drug sensitivity score (UT-SCC-24B; [11]): 15 ± 0.9 DSS
- drug sensitivity score (UT-SCC-24B; [12]): 9.1 ± 0.61 DSS
- drug sensitivity score (UT-SCC-24B; [13]): 20.3 ± 1.8 DSS
- drug sensitivity score (UT-SCC-28 [2]; [9]): 12 ± 2.6 DSS
- drug sensitivity score (UT-SCC-28 [2]; [10]): 9.97 ± 5.3 DSS
- drug sensitivity score (UT-SCC-28 [2]; [11]): 11.4 ± 1.6 DSS
- drug sensitivity score (UT-SCC-28 [2]; [13]): 5.03 ± 1.1 DSS
- drug sensitivity score (UT-SCC-40; [9]): 27.63 ± 0.058 DSS
- drug sensitivity score (UT-SCC-40; [10]): 20.2 ± 1.9 DSS
- drug sensitivity score (UT-SCC-40; [11]): 23.8 ± 1.2 DSS
- drug sensitivity score (UT-SCC-40; [12]): 14.9 ± 0.91 DSS
- drug sensitivity score (UT-SCC-40; [13]): 15.5 ± 0.85 DSS
- drug sensitivity score (UT-SCC-42A [3]; [9]): 20.9 ± 0.5 DSS
- drug sensitivity score (UT-SCC-42A [3]; [10]): 9.43 ± 1.3 DSS
- drug sensitivity score (UT-SCC-42A [3]; [11]): 20.5 ± 1.6 DSS
- drug sensitivity score (UT-SCC-42A [3]; [12]): 12.8 ± 0.46 DSS
- drug sensitivity score (UT-SCC-42A [3]; [13]): 16.33 ± 0.12 DSS
- drug sensitivity score (UT-SCC-42B; [9]): 24.5 ± 2.7 DSS
- drug sensitivity score (UT-SCC-42B; [11]): 16.2 ± 1 DSS
- drug sensitivity score (UT-SCC-42B; [12]): 9.77 ± 0.96 DSS
- drug sensitivity score (UT-SCC-42B; [13]): 10.1 ± 0.55 DSS
- drug sensitivity score (UT-SCC-44; [9]): 26.7 ± 2.9 DSS
- drug sensitivity score (UT-SCC-44; [10]): 11.7 ± 3 DSS
- drug sensitivity score (UT-SCC-44; [11]): 22.7 ± 1.1 DSS
- drug sensitivity score (UT-SCC-44; [12]): 13.1 ± 2.4 DSS
- drug sensitivity score (UT-SCC-44; [13]): 16.4 ± 4 DSS
- drug sensitivity score (UT-SCC-73; [9]): 27.8 ± 0.5 DSS
- drug sensitivity score (UT-SCC-73; [10]): 18.7 ± 4.6 DSS
- drug sensitivity score (UT-SCC-73; [11]): 25.9 ± 0.64 DSS
- drug sensitivity score (UT-SCC-73; [12]): 19.1 ± 1.1 DSS
- drug sensitivity score (UT-SCC-73; [13]): 23 ± 0.68 DSS
- drug sensitivity score (UT-SCC-81 [4]; [9]): 29.9 ± 0.51 DSS
- drug sensitivity score (UT-SCC-81 [4]; [10]): 9.3 ± 3.1 DSS
- drug sensitivity score (UT-SCC-81 [4]; [11]): 24 ± 1.8 DSS
- drug sensitivity score (UT-SCC-81 [4]; [12]): 9.87 ± 0.5 DSS
- drug sensitivity score (UT-SCC-81 [4]; [13]): 14.9 ± 1.4 DSS
- drug sensitivity score (UT-SCC-8; [9]): 20.5 ± 1.8 DSS
- drug sensitivity score (UT-SCC-8; [10]): 10.7 ± 0.15 DSS
- drug sensitivity score (UT-SCC-8; [11]): 18.2 ± 1.3 DSS
- drug sensitivity score (UT-SCC-8; [12]): 17 ± 1.6 DSS
- drug sensitivity score (UT-SCC-8; [13]): 16.9 ± 1.8 DSS

Reference: the supplement of paper PMC7017272
